Key:
Type in all cases: cell-based
U937 monocytoid cells = experiment: TUNEL assay, dAd added at different times after dCF wash-out (Example 22); conditions: dCF 0 μM 2 days, wash, 2 more days
Jurkat cells = experiment: Caspase-3 induction by flow cytometry (Example 31); conditions: drug 500 μM, PHA-activated cells
Experimental: (§1) In a search for a topical agent that can locally deplete levels of T-cells in the skin, apoptotic compounds were evaluated for their mechanisms of action. The ability that […] induce apoptosis by the same mechanisms was examined by cytokine secretion. […] Caspase-3 and cytokine (IL-2, IL-6, TNF, and IFN-γ) levels were determined and compared to controls at 23 and 46 hours. FdA was incorporated to evaluate the effect of the halogen group and Ara-C for its overlapping mechanisms of action. […] At the end of the treatment period, the cells were harvested and Caspase-3 induction was determined using a flow-cytometry-based method to quantify the percentage of cells that induced Caspase-3. The level of apoptosis is expressed as “% FITC shift”. Cytokine secretion (IL-2, IL-6, TNF, and IFN-γ) was measured at the same time by ELISA and is expressed in pg/mL. […]

U-937 cells [1] = experiment: Caspase-3 induction by flow cytometry (Example 31); conditions: drug 500 μM, LPS-activated cells
Experimental: as §1

U-937 cells [2] = experiment: Cytokine secretion by ELISA (Example 31); conditions: for Cytokine Secretion IL-6 pg/ml Mean of 3 Replicates: drug 500 μM, LPS-activated cells
Experimental: as §1

Nc1ncnc2c1ncn2[C@H]1C[C@H](O)[C@@H](CO)O1 [dAd, 2′-deoxyadenosine]
% PI Shift (U937 monocytoid cells; 50 μM dAd added 0 hr after wash-out): 1.4%
% PI Shift (U937 monocytoid cells; 50 μM dAd added 6 hr after wash-out): 1.3%
% PI Shift (U937 monocytoid cells; 50 μM dAd added 24 hr after wash-out): 1.1%
% PI Shift (U937 monocytoid cells; 50 μM dAd added 48 hr after wash-out): 2.0%
Caspase-3 Induction % FITC Shift - Mean of 3 Replicates (Jurkat cells; 23 hr): 73%
Caspase-3 Induction % FITC Shift - Mean of 3 Replicates (Jurkat cells; 46 hr): 92%
Caspase-3 Induction % FITC Shift - Mean of 3 Replicates (U-937 cells [1]; 23 hr): 67%
Caspase-3 Induction % FITC Shift - Mean of 3 Replicates (U-937 cells [1]; 46 hr): 43%
Cytokine Secretion IL-6 pg/ml Mean of 3 Replicates (U-937 cells [2]; 23 hr): 4 pg/mL
IL-6 inhibition after Caspase-3 induction (U-937 cells [2]; 46 hours, compared to no drug+LPS): 55%
Cytokine Secretion IL-6 pg/ml Mean of 3 Replicates (U-937 cells [2]; 46 hr): 4 pg/mL

— patent US20070142317A1, “Topical composition for treatment of skin disorders” (QLT USA, Inc., priority 2003, published 2007)
